{
  "source": "patent US6737058B2",
  "about": "“Methods for inhibiting endothelial cell and fibrinogen mediated inflammation using fibrinogen specific antibodies” (The Scripps Research Institute, priority 1992, dated 2004)",
  "key": {"HUVEC [1]": {"system": "HUVEC", "experiment": "Iodinated D30 binding to HUVEC monolayers and its competition", "set-up": "species or system human", "conditions": "50 fold molar excess of cold fibrinogen; myoglobin as nonspecific protein", "procedure": "Binding assays described above in Example 3A2) were also performed with the fibrinogen homolog, D30, to determine if that region of fibrinogen also immunoreacted with HUVEC. Since D30 was known to bind to leukocytes via the Mac-1 receptor as described by Altieri et al., J. Biol. Chem., 265:12119-12122 (1990), these experiments were performed to determine if regions of fibrinogen mediating the binding of leukocytes to HUVEC are contained within the D30 fragment. For this analysis, the D30 fragment of fibrinogen prepared in Example 1B was labelled with ^125I as described for labelling of fibrinogen above. Iodinated D30 was admixed to HUVEC monolayers at a concentration of 10 μg/ml to form a binding complex. After washing the cells to remove the unbound D30 as described in Example 3A2) above, the cells were solubilized and the amount of bound radioactivity was determined. The binding of D30 to HUVEC was maximal at 120 minutes of the maintenance period with approximately 60,000 cpm."}, "HUVEC [2]": {"system": "HUVEC", "experiment": "Inhibition of 125I-labelled fibrinogen binding to HUVEC by cold fibrinogen, anti-VNR antibodies and RGD/RGE peptides", "set-up": "species or system human", "procedure": "Binding of ^125I-labelled fibrinogen binding to HUVEC assays were performed in the presence of 50 molar excess of unlabelled fibrinogen in order to confirm the specificity of binding as shown in Example 3A. The binding assay was performed as described in Example 3A with the exception that unlabelled fibrinogen was admixed to HUVEC at a 50 molar excess (approximately […] fibrinogen) concurrently with 50 μg/ml of ^125I-labelled fibrinogen. The protein-cell admixtures were maintained at 22° C. for 30 minutes to allow for binding of fibrinogen to HUVEC. In addition to cold fibrinogen, a 50 fold molar excess of BSA was separately admixed as a control. The amount of fibrinogen bound under the above conditions was quantitated as described in Example 3A. The uninhibited total binding of ^125I-labelled fibrinogen saturated after 30 minutes at approximately 4000 cpm per well. […] The binding of fibrinogen to the HUVEC surface fibrinogen receptor is therefore specific.\nThe specificity of binding to an RGD-independent fibrinogen receptor was confirmed in competition assays performed as described above in the presence of monoclonal antibodies against the beta subunit of the RGD-dependent VNR and in the presence of RGD-containing peptides. For the assays in which the ability of anti-VNR monoclonal antibodies, designated mAb 609 and mAb 7E3, to inhibit the binding of ^125I-labelled fibrinogen to HUVEC, the antibodies were separately maintained at a concentration of 25 μg/ml with HUVEC for 20 minutes at 37° C. After the maintenance period, the antibody-treated HUVEC were washed once with serum-free RPMI 1640 to remove any unbound antibody. Labelled fibrinogen was then admixed to the treated HUVEC at a concentration of 50 μg/ml in the presence of 2.5 mM CaCl2 and […] PPack. The resultant admixtures were maintained for 10-30 minutes at 22° C. The fibrinogen-treated HUVEC were then washed, solubilized and counted as described in Example 3A.\nTo confirm that the fibrinogen binding site on HUVEC was not RGD dependent, inhibition assays performed as described above for inhibiting with antibodies except that they were done in the presence of 1.0 mM of an RGD-containing peptide. A control RGE-containing peptide was also included in the assay. At selected time points over the time course of one hour, the HUVEC were harvested as described in Example 3A."}, "HUVEC [3]": {"system": "HUVEC", "experiment": "Adhesion of terminally-differentiated 51Cr-labeled HL-60 cells to resting HUVEC with plasma adhesive proteins", "assay_type": "cell-based, human", "conditions": "150 μ/ml protein, fMLP 10 μM, 30 min at 22° C.", "procedure": "The effect of fibrinogen, vitronectin, and fibronectin on the interaction of terminally-differentiated HL-60 and monocytic THP-1 cells with HUVEC was determined as described in Languino, supra. Briefly, serum-free suspensions of HL-60 or THP-1 cells were labeled with ^51Cr as described in Example 81A to a final incorporation of 0.2-4 cpm/cell. After washes in PBS, pH 7.2, aliquots of the HL-60 cells were resuspended in serum-free RPMI 1640 at 1.5×10^6/ml and stimulated with 10 μM of the chemoattractant formyl-methionyl-leucyl-phenylalanine (fMLP, Sigma, St. Louis, Mo.) and equilibrated with 150 μ/ml fibrinogen, vitronectin, or fibronectin in the presence of 1 mM CaCl2 for 20 min at 22° C. Equilibrated HL-60 were added to resting HUVEC monolayers that had been previously incubated with fresh complete culture medium 12 hours prior to the experiment and incubated for an additional 30 min at 22° C., washed,solubilized in 10-20% SDS, and associated radioactivity determined in a scintillation β-counter. The number of attached cells was quantitated by diving the cpm harvested by the cpm/cell. Under these experimental conditions, there was no aggregation of the various leukocyte subpopulations in the presence of the different plasma adhesive proteins, nor disruption of the HUVEC monolayers at any time interval tested, as judged by routine microscopic examination of the adhesion field. Data are the mean ± S.D. of triplicates from a representative experiment.\nExperimental conditions were the same as described in Example 9C1 except that the ^51Cr-labeled HL-60 cells were equilibrated with 40 μg/ml vitronectin or control protein transferrin and added to resting HUVEC for increasing time intervals between 10 and 60 minutes at 22° C. before measurement of leukocyte adhesion.\nExperimental conditions were the same as described in Example 9C1 except that the ^51Cr-labeled HL-60 cells were equilibrated with several concentrations of vitronectin ranging from 1.84 to 150 μg/ml and prior to incubation to resting HUVEC."}},
  "data": [
    {"substance": "fibrinogen: fibrinogen isolated from fresh plasma by cold ethanol fractionation, fibronectin-free", "values": [
      {"measurement": "competition of D30 binding to HUVEC", "setting": "HUVEC [1]", "result": "specifically competed"},
      {"measurement": "uninhibited total binding of 125I-labelled fibrinogen at saturation", "setting": "HUVEC [2]; 50 μg/ml, after 30 minutes, 22° C.", "result": "approximately 4000 cpm per well"},
      {"measurement": "inhibition of 125I-labelled fibrinogen binding to HUVEC", "setting": "HUVEC [2]; 50 molar excess of unlabelled protein, 50 μg/ml labelled fibrinogen, 22° C., 30 minutes", "result": "half that of the total uninhibited binding"},
      {"measurement": "inhibition of 125I-labelled fibrinogen binding to HUVEC (FIG. 7)", "setting": "HUVEC [2]; cold fibrinogen in 50 molar excess, 10-30 minutes", "result": "almost completely inhibited"},
      {"measurement": "inhibition of 125I-labelled fibrinogen binding to HUVEC (FIG. 8)", "setting": "HUVEC [2]; cold fibrinogen, time course of one hour", "result": "completely inhibited"},
      {"measurement": "adhesion of differentiated HL-60 cells to HUVEC relative to cells not equilibrated with an adhesive protein", "setting": "HUVEC [3]", "result": "two to three-fold higher"}
    ]}
  ]
}
